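Values below derive from 48-hour exposures of cells grown in 96-well plates, with endpoints linearly interpolated between the two concentrations bracketing the appropriate inhibition level. Abbreviation: GI50, concentration required for 50% inhibition of growth.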 Activity calls are given as the source filed them. Cut-off read from the data, not from the text of the source: active = GI50 up to about 1.1 µM and inactive = higher.
Experiments:
Assay in all cases: DTP human tumour cell line panel, 48 h
[1] = test system: M14
[2] = test system: RXF 393
[3] = test system: NCI/ADR-RES
[4] = test system: UACC-257
[5] = test system: UACC-62
[6] = test system: A498
[7] = test system: PC-3
[8] = test system: COLO 205
[9] = test system: IGROV-1
[10] = test system: SNB-75
[11] = test system: OVCAR-3
[12] = test system: MDA-MB-435
[13] = test system: NCI-H226
[14] = test system: CCRF-CEM
[15] = test system: KM12
[16] = test system: ACHN
[17] = test system: 786-0
[18] = test system: HCT-116
[19] = test system: TK-10
[20] = test system: SF-268

c1ccc2c(NCCCCCCCCNc3c4ccccc4nc4ccccc34)c3ccccc3nc2c1
GI50 [1]: 0.975 µM (active)
GI50 [2]: 0.0782 µM (active)
GI50 [3]: 4.15 µM (inactive)
GI50 [4]: 1.37 µM (inactive)
GI50 [5]: 0.684 µM (active)
GI50 [6]: 1.26 µM (inactive)
GI50 [7]: 0.0548 µM (active)
GI50 [8]: 0.113 µM (active)
GI50 [9]: 0.0927 µM (active)
GI50 [10]: 1.19 µM (inactive)
GI50 [11]: 0.37 µM (active)
GI50 [12]: 1.04 µM (active)
GI50 [13]: 1.35 µM (inactive)
GI50 [14]: < 0.0278 µM (active)
GI50 [15]: 0.187 µM (active)
GI50 [16]: 0.0703 µM (active)
GI50 [17]: 0.106 µM (active)
GI50 [18]: 0.0392 µM (active)
GI50 [19]: 1.38 µM (inactive)
GI50 [20]: 0.63 µM (active)

CC(C)CC(=O)OC[n+]1ccc(-c2c(COC(=O)NC(C)C)c(COC(=O)NC(C)C)c3n2CCC3)cc1
GI50 [1]: > 100 µM (inactive)
GI50 [2]: > 100 µM (inactive)
GI50 [3]: > 100 µM (inactive)
GI50 [4]: > 100 µM (inactive)
GI50 [5]: 83.8 µM (inactive)
GI50 [6]: 84.3 µM (inactive)
GI50 [7]: > 100 µM (inactive)
GI50 [8]: > 100 µM (inactive)
GI50 [9]: > 100 µM (inactive)
GI50 [10]: > 100 µM (inactive)
GI50 [11]: > 100 µM (inactive)
GI50 [12]: > 100 µM (inactive)
GI50 [13]: > 100 µM (inactive)
GI50 [14]: 64.4 µM (inactive)
GI50 [15]: > 100 µM (inactive)
GI50 [16]: 38.3 µM (inactive)
GI50 [17]: > 100 µM (inactive)
GI50 [18]: > 100 µM (inactive)
GI50 [19]: > 100 µM (inactive)
GI50 [20]: > 100 µM (inactive)

CC1CC2CCCC(=O)C2=C(O)O1 (stereo not given)
GI50 [1]: > 100 µM (inactive)
GI50 [2]: > 100 µM (inactive)
GI50 [3]: > 100 µM (inactive)
GI50 [4]: > 100 µM (inactive)
GI50 [5]: > 100 µM (inactive)
GI50 [6]: > 100 µM (inactive)
GI50 [7]: > 100 µM (inactive)
GI50 [8]: > 100 µM (inactive)
GI50 [9]: > 100 µM (inactive)
GI50 [10]: > 100 µM (inactive)
GI50 [11]: > 100 µM (inactive)
GI50 [12]: > 100 µM (inactive)
GI50 [13]: > 100 µM (inactive)
GI50 [14]: > 100 µM (inactive)
GI50 [15]: > 100 µM (inactive)
GI50 [16]: > 100 µM (inactive)
GI50 [17]: > 100 µM (inactive)
GI50 [18]: > 100 µM (inactive)
GI50 [19]: > 100 µM (inactive)
GI50 [20]: > 100 µM (inactive)

COc1c(OC)c(O)c2c(=O)c(OC)c(-c3ccc4c(c3)OCO4)oc2c1O
GI50 [1]: > 100 µM (inactive)
GI50 [2]: 91.4 µM (inactive)
GI50 [3]: > 100 µM (inactive)
GI50 [4]: 67 µM (inactive)
GI50 [5]: > 100 µM (inactive)
GI50 [6]: > 100 µM (inactive)
GI50 [7]: > 100 µM (inactive)
GI50 [8]: > 100 µM (inactive)
GI50 [9]: > 100 µM (inactive)
GI50 [10]: > 100 µM (inactive)
GI50 [11]: > 100 µM (inactive)
GI50 [12]: > 100 µM (inactive)
GI50 [13]: > 100 µM (inactive)
GI50 [14]: 55.5 µM (inactive)
GI50 [15]: > 100 µM (inactive)
GI50 [16]: > 100 µM (inactive)
GI50 [17]: > 100 µM (inactive)
GI50 [18]: 38.6 µM (inactive)
GI50 [19]: > 100 µM (inactive)
GI50 [20]: > 100 µM (inactive)

Reference: ChEMBL document CHEMBL1201862, “PubChem BioAssay data set” (2004)
